Assay results taken from patent US10294202B2, “Pyrrolidinones as herbicides” (FMC Corporation, priority 2013, dated 2019).

Key:
[1] = system: velvetleaf; assay: Test C pre-/postemergence herbicide test; assay type: in vivo, Abutilon theophrasti
Method in brief: (§1)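 Pre-emergence: seeds sown in loam/sand blend and treated with compound in surfactant-containing solvent. Post-emergence: plants at 2–18 cm (1- to 4-leaf stage) in peat-based medium sprayed with the same formulation. Visual rating versus controls after 13–15 days in greenhouse, scale 0 (no effect) to 100 (complete control).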

[2] = system: lambsquarters; assay: Test C pre-/postemergence herbicide test; assay type: in vivo, Chenopodium album
Method in brief: as §1

[3] = system: johnsongrass; assay: Test C pre-/postemergence herbicide test; assay type: in vivo, Sorghum halepense
Method in brief: as §1

[4] = system: pigweed; assay: Test C pre-/postemergence herbicide test; assay type: in vivo, Amaranthus retroflexus
Method in brief: as §1

[5] = system: foxtail, giant; assay: Test C pre-/postemergence herbicide test; assay type: in vivo, Setaria faberii
Method in brief: as §1

[6] = system: nutsedge, yellow; assay: Test C pre-/postemergence herbicide test; assay type: in vivo, Cyperus esculentus
Method in brief: as §1

[7] = system: pigweed; assay: Test A pre-/postemergence herbicide test; assay type: in vivo, Amaranthus retroflexus
Method in brief: (§2)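 Seeds in loam–sand blend received preemergence directed soil spray; separately, plants 2–10 cm at one- to two-leaf stage received postemergence spray, both with test chemicals in non-phytotoxic solvent with surfactant. After ~10 days in greenhouse, injury rated visually against untreated controls, 0 (no effect) to 100 (complete control).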

[8] = system: waterhemp; assay: Test C pre-/postemergence herbicide test; assay type: in vivo, Amaranthus rudis
Text: (§3) Seeds of plant species selected from blackgrass (Alopecurus myosuroides), ryegrass, Italian (Italian ryegrass, Lolium multiflorum), wheat (winter wheat, Triticum aestivum), galium (catchweed bedstraw, Galium aparine), corn (Zea mays), crabgrass, large (large crabgrass, Digitaria sanguinalis), foxtail, giant (giant foxtail, Setaria faberii), johnsongrass (Sorghum halepense), lambsquarters (Chenopodium album), morningglory (Ipomoea coccinea), nutsedge, yellow (yellow nutsedge, Cyperus esculentus), pigweed (Amaranthus retroflexus), ragweed (common ragweed, Ambrosia elatior), soybean (Glycine max), barnyardgrass (Echinochloa crus-galli), oilseed rape (Brassica napus), waterhemp (common waterhemp, Amaranthus rudis), kochia (Kochia scoparia), oat, wild (wild oat, Avena fatua), surinam grass (Brachiaria decumbens), foxtail, green (green foxtail, Setaria viridis), goosegrass (Eleusine indica), bromegrass, downy (downy bromegrass, Bromus tectorum), nightshade (eastern black nightshade, Solanum ptycanthum), cocklebur (common cocklebur, Xanthium strumarium), cupgrass, woolly (woolly cupgrass, Eriochloa villosa), bermudagrass (Cynodon dactylon), sunflower, (common oilseed sunflower, Helianthus annuus), Russian thistle (Salsola kali) and velvetleaf (Abutilon theophrasti) were planted into a blend of loam soil and sand and treated preemergence with test chemicals formulated in a non-phytotoxic solvent mixture which included a surfactant. At the same time, plants selected from these crop and weed species and also barley (winter barley, Hordeum vulgare), […]), chickweed (common chickweed, Stellaria media), deadnettle (henbit deadnettle, Lamium amplexicaule), and canarygrass (littleseed canarygrass, Phalaris minor) were planted in pots containing Redi-Earth® planting medium (Scotts Company, 14111 Scottslawn Road, Marysville, Ohio 43041) comprising spaghnum peat moss, vermiculite, wetting agent and starter nutrients and treated with postemergence applications of test chemicals formulated in the same manner. Plants ranged in height from 2 to 18 cm (1- to 4-leaf stage) for postemergence treatments. Treated plants and controls were maintained in a greenhouse for 13 to 15 days, after which time all species were compared to controls and visually evaluated. Plant response ratings, summarized in Table C, are based on a scale of 0 to 100 where 0 is no effect and 100 is complete control. A dash (-) response means no test result.

[9] = system: corn; assay: Test C pre-/postemergence herbicide test; assay type: in vivo, Zea mays
Method in brief: as §1

[10] = system: galium; assay: Test C pre-/postemergence herbicide test; assay type: in vivo, Galium aparine; conditions: Preemergence; for Plant response rating, Galium: 125 g ai/ha; for Plant response rating (scale of 0 to 100), Galium: 250 g ai/ha
Method in brief: as §1

[11] = system: wheat; assay: Test A pre-/postemergence herbicide test; assay type: in vivo, Triticum aestivum
Method in brief: as §2

[12] = system: oilseed rape; assay: Test C pre-/postemergence herbicide test; assay type: in vivo, Brassica napus
Text: as §3

[13] = Preemergence, 31 g ai/ha, scale 0 to 100, 0 is no effect and 100 is complete control
[14] = Preemergence, 62 g ai/ha, scale 0 to 100 (0 no effect, 100 complete control)
[15] = Preemergence, 125 g ai/ha, scale 0 to 100 (0 no effect, 100 complete control)
[16] = Postemergence, 125 g ai/ha, 0 to 100 scale, 0 is no effect, 100 is complete control
[17] = Postemergence, 500 g ai/ha, 0 to 100 scale (0 no effect, 100 complete control)
[18] = Preemergence, 125 g ai/ha, 0 to 100 scale where 0 is no effect and 100 is complete control
[19] = 31 g ai/ha, scale 0 to 100, 0 is no effect and 100 is complete control
[20] = 62 g ai/ha, scale 0 to 100 (0 no effect, 100 complete control)
[21] = Postemergence, 31 g ai/ha, scale 0 to 100 (0 no effect, 100 complete control)
[22] = Postemergence, 62 g ai/ha, scale 0 (no effect) to 100 (complete control)
[23] = Postemergence, 125 g ai/ha, scale 0 to 100 (0 no effect, 100 complete control)
[24] = Postemergence, 250 g ai/ha, scale 0 to 100 (0 no effect, 100 complete control)
[25] = Preemergence, 125 g ai/ha, scale 0 to 100
[26] = Postemergence, 125 g ai/ha, visual rating on 0 to 100 scale (0 no effect, 100 complete control), approx. 10 days

O=C1NCC(c2ccc(C(F)(F)F)c(F)c2)C1C(=O)Nc1ccccc1F (racemic) [Compound 246]
65: Lambsquarters plant response rating [2, 13] | Lambsquarters plant response rating [2, 14]
20: Johnsongrass plant response rating [3, 14]
98: Waterhemp plant response rating [8, 14]
30: Pigweed plant response rating [4, 13] | Plant response rating, Wheat [11, 17] | Oilseed Rape plant response rating [12, 14] | Plant response rating (scale of 0 to 100), Oilseed Rape ([12]; Preemergence, 250 g ai/ha)
100: Plant response rating (scale of 0 to 100), Pigweed ([4]; Preemergence, 250 g ai/ha) | Nutsedge, Yellow plant response rating [6, 14] | Plant response rating, Nutsedge, Yellow [6, 15] | Waterhemp plant response rating [8, 13]
5: Plant response rating (scale of 0 to 100), Johnsongrass ([3]; Preemergence, 250 g ai/ha) | Plant response rating, Corn [9, 15]
95: Plant response rating, Foxtail, Giant [5, 15] | Plant response rating (scale of 0 to 100), Foxtail, Giant ([5]; Preemergence, 250 g ai/ha)
0: Velvetleaf plant response rating [1, 13] | Velvetleaf plant response rating [1, 14] | Plant response rating, Velvetleaf [1, 15] | Plant response rating (scale of 0 to 100), Velvetleaf ([1]; Preemergence, 250 g ai/ha) | Johnsongrass plant response rating [3, 13] | Plant response rating, Johnsongrass [3, 15] | Plant response rating (scale of 0 to 100), Nutsedge, Yellow ([6]; Preemergence, 250 g ai/ha) | Plant response rating, Pigweed [7, 16] | Plant response rating, Pigweed [7, 17] | Plant response rating, Pigweed [7, 18] | Plant response rating, Pigweed ([7]; preemergence, 500 g ai/ha, 0 to 100 scale, 0 is no effect and 100 is complete control) | Corn plant response rating [9, 13] | Corn plant response rating [9, 14] | Plant response rating (scale of 0 to 100), Corn ([9]; Preemergence, 250 g ai/ha) | Plant response rating, Wheat [11, 16] | Plant response rating, Wheat [11, 18] | Oilseed Rape plant response rating [12, 13] | Plant response rating, Oilseed Rape [12, 15]
75: Pigweed plant response rating [4, 14] | Plant response rating, Pigweed [4, 15]
85: Foxtail, Giant plant response rating [5, 13] | Nutsedge, Yellow plant response rating [6, 13]
10: Galium plant response rating [10, 19]
90: Plant response rating (scale of 0 to 100), Lambsquarters ([2]; Preemergence, 250 g ai/ha) | Foxtail, Giant plant response rating [5, 14] | Plant response rating, Waterhemp [8, 15] | Plant response rating (scale of 0 to 100), Waterhemp ([8]; Preemergence, 250 g ai/ha) | Galium plant response rating [10, 20] | Plant response rating, Galium ([10]; scale 0 to 100 (0 no effect, 100 complete control)) | Plant response rating (scale of 0 to 100), Galium [10]
80: Plant response rating, Lambsquarters [2, 15]

O=C1NCC(c2cccc(C(F)(F)F)c2)C1C(=O)Nc1ccccc1Cl (stereo not shown) [Compound 312]
75: Plant response rating, Lambsquarters [2, 22] | Plant response rating, Foxtail, Giant [5, 22] | Plant response rating, Foxtail, Giant [5, 23]
30: Plant response rating, Velvetleaf [1, 21] | Johnsongrass plant response rating [3, 13] | Plant response rating, Pigweed [7, 17] | Plant response rating (scale of 0 to 100), Oilseed Rape ([12]; Preemergence, 250 g ai/ha)
15: Velvetleaf plant response rating [1, 14] | Plant response rating, Corn [9, 22] | Plant response rating, Oilseed Rape [12, 25]
70: Plant response rating (scale of 0 to 100), Corn ([9]; Preemergence, 250 g ai/ha) | Plant response rating, Wheat [11, 17]
10: Plant response rating, Pigweed [4, 21] | Plant response rating, Corn [9, 23] | Plant response rating, Corn [9, 24] | Corn plant response rating [9, 13]
65: Plant response rating, Lambsquarters [2, 21] | Plant response rating, Waterhemp [8, 25]
50: Plant response rating, Lambsquarters [2, 25] | Johnsongrass plant response rating [3, 14]
45: Plant response rating, Pigweed [4, 24] | Plant response rating, Pigweed [4, 25] | Plant response rating, Waterhemp [8, 22] | Waterhemp plant response rating [8, 14]
95: Plant response rating, Lambsquarters [2, 23] | Plant response rating (scale of 0 to 100), Foxtail, Giant ([5]; Preemergence, 250 g ai/ha)
20: Plant response rating, Velvetleaf [1, 25] | Plant response rating, Pigweed [4, 22] | Plant response rating, Pigweed [7, 26] | Pigweed plant response rating ([7]; Preemergence, 500 g ai/ha, visual rating on 0 to 100 scale (0 no effect, 100 complete control)) | Plant response rating, Waterhemp [8, 23] | Plant response rating, Waterhemp [8, 24]
5: Plant response rating, Galium ([10]; scale 0 to 100)
35: Plant response rating, Velvetleaf [1, 24] | Nutsedge, Yellow plant response rating [6, 14]
55: Plant response rating, Lambsquarters [2, 24] | Plant response rating (scale of 0 to 100), Pigweed ([4]; Preemergence, 250 g ai/ha) | Plant response rating, Foxtail, Giant [5, 21] | Plant response rating, Corn [9, 25]
0: Plant response rating, Velvetleaf [1, 22] | Plant response rating, Velvetleaf [1, 23] | Lambsquarters plant response rating [2, 13] | Lambsquarters plant response rating [2, 14] | Plant response rating, Johnsongrass [3, 21] | Plant response rating, Johnsongrass [3, 22] | Plant response rating, Johnsongrass [3, 24] | Plant response rating, Nutsedge, Yellow [6, 21] | Plant response rating, Nutsedge, Yellow [6, 22] | Plant response rating, Nutsedge, Yellow [6, 23] | Plant response rating, Nutsedge, Yellow [6, 24] | Nutsedge, Yellow plant response rating [6, 13] | Plant response rating, Nutsedge, Yellow [6, 25] | Plant response rating (scale of 0 to 100), Nutsedge, Yellow ([6]; Preemergence, 250 g ai/ha) | Plant response rating, Pigweed [7, 18] | Plant response rating, Waterhemp [8, 21] | Plant response rating, Corn [9, 21] | Galium plant response rating [10, 20] | Plant response rating, Oilseed Rape [12, 21] | Plant response rating, Oilseed Rape [12, 22] | Plant response rating, Oilseed Rape [12, 23] | Plant response rating, Oilseed Rape [12, 24] | Oilseed Rape plant response rating [12, 13] | Oilseed Rape plant response rating [12, 14]
90: Foxtail, Giant plant response rating [5, 13] | Foxtail, Giant plant response rating [5, 14] | Plant response rating, Foxtail, Giant [5, 25] | Galium plant response rating [10, 19]
25: Plant response rating, Johnsongrass [3, 23] | Plant response rating, Pigweed [4, 23] | Pigweed plant response rating [4, 13]
40: Plant response rating (scale of 0 to 100), Velvetleaf ([1]; Preemergence, 250 g ai/ha) | Pigweed plant response rating [4, 14] | Plant response rating, Wheat [11, 26]
80: Plant response rating, Johnsongrass [3, 25] | Plant response rating, Foxtail, Giant [5, 24] | Plant response rating (scale of 0 to 100), Waterhemp ([8]; Preemergence, 250 g ai/ha) | Plant response rating (scale of 0 to 100), Galium [10]
85: Plant response rating (scale of 0 to 100), Johnsongrass ([3]; Preemergence, 250 g ai/ha)
60: Plant response rating (scale of 0 to 100), Lambsquarters ([2]; Preemergence, 250 g ai/ha) | Corn plant response rating [9, 14]
